For 14 compounds, IC50 and MMP2-inhibitory effect results are on record in patent US20240199692A1 (priority 2019, published 2024).

Read-outs that look alike come from different tables or passages of the source. *1 amine or outer side, *2 acyl side, *3 side chain or, on linkers, in order; H or OH if unused. Where a SMILES comes first, the peptide text is derived from it. [ ]: non-standard residue; d: D form. The star is where a group is joined. PhSO2(4-NHCOPh(4-CONH2)) = NC(=O)c1ccc(C(=O)Nc2ccc(S(=O)(=O)*)cc2)cc1; Phenylsulfonyl(4-anisamido) = COc1ccc(C(=O)Nc2ccc(S(=O)(=O)*)cc2)cc1; X1 = O=C(Nc1ccc(S(=O)(=O)*)cc1)c1ccc(OC(F)(F)F)cc1; X2 = CCOc1ccc(C(=O)Nc2ccc(S(=O)(=O)*)cc2)cc1; Benzoyl(4-OPh) = O=C(c1ccc(Oc2ccccc2)cc1)*; d(γGlu) = O=C(O)[C@@H](CCC(=O)[*:2])N[*:1]; d(βAsp) = O=C(O)[C@@H](CC(=O)[*:2])N[*:1]; Pro(4S-NH2) = N[C@@H]1CN[C@H](C(=O)O)C1; X13 = Cc1ccc(C#Cc2ccc(S(=O)(=O)*)s2)cc1; NMeI = CC[C@H](C)[C@H](NC)C(=O)O; NMeE = CN[C@@H](CCC(=O)O)C(=O)O; NMeN = CN[C@@H](CC(N)=O)C(=O)O; NMeV = CN[C@H](C(=O)O)C(C)C; β3hP = O=C(O)C[C@@H]1CCCN1; Orn = NCCC[C@H](N)C(=O)O; Dab = NCC[C@H](N)C(=O)O; Dap = NC[C@H](N)C(=O)O; GABA = NCCCC(=O)O; βAla = NCCC(=O)O

One assay deals with human MMP13 (Homo sapiens, UniProt P45452). The assay is described as follows: Inhibitory effects on human MMP13, enzyme assay. The assay is classed as biochemical. The note with it: Test Example 8. The procedure:
The human MMP13 activated through the reaction was poured into a 96-well microplate to reach a final concentration of 5 ng/mL. […] Then, MOCAc-[…] was added to reach a final concentration of 6 μmol/L, and enzymatic reaction was initiated.

Another assay deals with human MMP12 (Homo sapiens, UniProt P39900). The assay is described as follows: Inhibitory effects on human MMP12, enzyme assay. Format: biochemical.
Chain of human MMP12 (P39900 106-470): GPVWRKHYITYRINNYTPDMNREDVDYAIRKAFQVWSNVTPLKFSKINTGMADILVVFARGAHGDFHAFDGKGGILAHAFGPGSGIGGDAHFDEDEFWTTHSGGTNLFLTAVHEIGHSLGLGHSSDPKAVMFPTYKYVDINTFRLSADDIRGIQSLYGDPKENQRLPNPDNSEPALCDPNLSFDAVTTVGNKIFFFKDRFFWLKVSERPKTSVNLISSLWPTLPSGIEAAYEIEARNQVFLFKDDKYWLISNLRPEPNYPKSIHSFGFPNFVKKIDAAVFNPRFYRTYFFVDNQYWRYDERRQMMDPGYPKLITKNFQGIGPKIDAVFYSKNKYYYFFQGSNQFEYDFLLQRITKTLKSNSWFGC
Assay [1] has as its target T1, MMP2 (Homo sapiens, UniProt P08253).
T1 sequence (P08253 110-660): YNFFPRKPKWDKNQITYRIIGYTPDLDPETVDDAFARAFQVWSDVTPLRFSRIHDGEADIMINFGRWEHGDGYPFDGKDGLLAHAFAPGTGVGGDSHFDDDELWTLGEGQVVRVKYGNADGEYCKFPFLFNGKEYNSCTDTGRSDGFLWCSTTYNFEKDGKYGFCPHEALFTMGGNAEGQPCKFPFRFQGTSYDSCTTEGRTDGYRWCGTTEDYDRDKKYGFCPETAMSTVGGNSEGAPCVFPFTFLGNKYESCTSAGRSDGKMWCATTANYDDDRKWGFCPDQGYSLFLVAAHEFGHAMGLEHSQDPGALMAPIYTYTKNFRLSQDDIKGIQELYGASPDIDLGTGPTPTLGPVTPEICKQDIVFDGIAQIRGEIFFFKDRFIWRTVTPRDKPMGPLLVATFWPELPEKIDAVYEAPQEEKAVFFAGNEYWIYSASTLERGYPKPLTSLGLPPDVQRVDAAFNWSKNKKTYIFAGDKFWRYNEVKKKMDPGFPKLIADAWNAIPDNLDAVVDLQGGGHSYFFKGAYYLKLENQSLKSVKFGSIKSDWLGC
The assay is described as follows: Inhibitory effects on human MMP2 (Method 1), enzyme assay with MOCAc-Pro-Leu-Gly-Leu-A2pr(Dnp)-Ala-Arg-NH2 substrate, 96-well. The assay is classed as biochemical. The note with it: Test Example No. 1-1 (Method 1, 96-well microplate); read-out: Human MMP2, IC50. The procedure:
In a reaction solution [50 mmol/L Tris-HCl (pH 7.5), 150 mmol/L NaCl, 10 mmol/L CaCl2, 0.05% Brij L23], 100 μg/mL human recombinant MMP2 enzyme and 1 mmol/L 4-Aminophenylmercuric acetate were mixed together, and reacted at 37° C. for 60 minutes. The human MMP2 activated through the reaction was poured into a 96-well microplate to reach a final concentration of 0.7 or 7 ng/mL.

The target of assay [2] is T1, MMP2. The assay is described as follows: Inhibitory effects on human MMP2 (Method 2), enzyme assay with MOCAc-Pro-Leu-Gly-Leu-A2pr(Dnp)-Ala-Arg-NH2 substrate, 384-well. Format: biochemical. The settings on record: Test Example No. 1-2 (Method 2, 384-well microplate).
Assay [3] has as its target T1, MMP2. The settings on record: reported, see NPTL 19; cited from earlier work.
Setting [4] is: Test Example 7, read-out: Human MMP12, IC50.

Take `CC[C@H](C)[C@@H](C(=O)NCCCCC(N)=O)N(C)C(=O)[C@H](CC(C)C)NC(=O)[C@@H]1C[C@H](N)CN1C(=O)CC[C@@H](NS(=O)(=O)c1ccc(NC(=O)c2ccc(C(N)=O)cc2)cc1)C(=O)O` [Compound 9]: the results for the half-maximal inhibitory concentration (IC50) on human MMP13, at human MMP12 (setting [4]) and at MMP2 [1] were 250 nM, 160 nM and 0.29 nM, respectively.

Regarding `CC(C)C[C@H](NC(=O)[C@@H]1C[C@H](N)CN1C(=O)CC[C@@H](NS(=O)(=O)c1ccc(NC(=O)c2ccc(C(N)=O)cc2)cc1)C(=O)O)C(=O)N(C)[C@@H](CCC(=O)O)C(=O)N[C@H](CCCNC(=N)N)C(N)=O` [Compound 29] ({PhSO2(4-NHCOPh(4-CONH2))-d(γGlu)}-[Pro(4S-NH2)]L[NMeE][dR]-NH2; C-terminus assumed), at MMP2 [2], 0.14 nM corresponded to half-maximal inhibition (IC50).

As for “IIe-Ser-Tyr-Gly-Asn-Asp-Ala-Leu-Met-Pro [APP-IP]”, on MMP2 [3], the MMP2-inhibitory effect entry is “selective MMP2-inhibitory effect”.

Regarding `CC(C)C[C@H](NC(=O)[C@@H]1C[C@H](N)CN1C(=O)CC[C@@H](NS(=O)(=O)c1ccc(NC(=O)c2ccc(C(N)=O)cc2)cc1)C(=O)O)C(=O)N(C)[C@@H](CCC(=O)O)C(=O)NCCCCC(N)=O` [Compound 1, N-[4-(4-carbamoylbenzamido)benzene-1-sulfonyl]-D-γ-glutamyl-(4S)-4-amino-L-prolyl-L-1 eucyl-N-(5-amino-5-oxopentyl)-N^2-methyl-L-α-glutamine], the IC50 (as a rule, the concentration at which inhibition is half-maximal) against human MMP13 was 240 nM; against human MMP12, 253 nM; at MMP2 [1], 0.22 nM.

As to `COc1ccc(C(=O)Nc2ccc(S(=O)(=O)N[C@H](CC(=O)N[C@@H](CN)C(=O)N[C@@H](CC(C)C)C(=O)N(C)[C@@H](CCC(=O)O)C(=O)N3CCC[C@H]3CC(N)=O)C(=O)O)cc2)cc1` [Compound 691] ({Phenylsulfonyl(4-anisamido)-d(βAsp)}-[Dap]L[NMeE][β3hP]-NH2; N-terminus assumed), the IC50 against human MMP13 was found to be 142 nM; on human MMP12 (setting [4]) it was 101 nM; at MMP2 [1] it was 0.065 nM.

As for `CC[C@H](C)[C@@H](C(=O)N1CCC[C@H]1CC(N)=O)N(C)C(=O)[C@H](CC(C)C)NC(=O)[C@H](CCN)NC(=O)CC[C@@H](NS(=O)(=O)c1ccc(NC(=O)c2ccc(OC(F)(F)F)cc2)cc1)C(=O)O` [Compound 701] ({X1-d(γGlu)}-[Dab]L[NMeI][β3hP]-NH2; N-terminus assumed), the IC50 on human MMP13 was 116 nM; at human MMP12 (setting [4]), 169 nM; at MMP2 [1], 0.27 nM.

In the case of `CC(C)C[C@H](NC(=O)[C@H](CCN)NC(=O)[C@H](CC(=O)O)NC(=O)[C@H](CC(N)=O)N(C)C(=O)CCCNC(=O)c1ccc(Oc2ccccc2)cc1)C(=O)N(C)[C@@H](CCC(=O)O)C(=O)N1CCC[C@H]1C(N)=O` [Compound 113] ({Benzoyl(4-OPh)-GABA}-[NMeN]D[Dab]L[NMeE]P-NH2; N-terminus assumed), the IC50 on MMP2 [1] stood at 2.2 nM.

Consider `CC(C)C[C@H](NC(=O)[C@H](CCN)NC(=O)[C@H](CC(=O)O)NC(=O)[C@@H](NC(=O)CCCNC(=O)c1ccc(Oc2ccccc2)cc1)C(C)C)C(=O)N(C)[C@@H](CCC(=O)O)C(=O)N1CCC[C@H]1CC(N)=O` [Compound 143] ({Benzoyl(4-OPh)-GABA}-VD[Dab]L[NMeE][β3hP]-NH2; N-terminus assumed), for which the concentration for half-maximal inhibition (IC50) on MMP2 [1] was found to be 2.6 nM.

For the compound `Cc1ccc(C#Cc2ccc(S(=O)(=O)NCCC(=O)N[C@@H](CC(N)=O)C(=O)N[C@@H](CC(=O)O)C(=O)N[C@@H](C)C(=O)N[C@@H](CC(C)C)C(=O)N(C)[C@H](C(=O)N3CCC[C@H]3C(N)=O)C(C)C)s2)cc1` [Compound 589] ({X13-βAla}-NDAL[NMeV]P-NH2; N-terminus assumed), the IC50 on MMP2 [1] was 0.12 nM.

Regarding `CC[C@H](C)[C@@H](C(=O)N[C@@H](CC(=O)O)C(=O)N[C@@H](C)C(=O)N[C@@H](CC(C)C)C(=O)N(C)[C@H](C(=O)N1CCC[C@H]1C(N)=O)[C@@H](C)CC)N(C)C(=O)CCCNC(=O)c1ccc(Oc2ccccc2)cc1` [Compound 121] ({Benzoyl(4-OPh)-GABA}-[NMeI]DAL[NMeI]P-NH2; N-terminus assumed), the half-inhibitory concentration (IC50) on MMP2 [1] was 0.19 nM.

With `CCOc1ccc(C(=O)Nc2ccc(S(=O)(=O)N[C@H](CCC(=O)N[C@@H](CCN)C(=O)N[C@@H](CC(C)C)C(=O)N(C)[C@H](C(=O)N3CCC[C@H]3CC(N)=O)[C@@H](C)CC)C(=O)O)cc2)cc1` [Compound 698] ({X2-d(γGlu)}-[Dab]L[NMeI][β3hP]-NH2; N-terminus assumed), the IC50 on MMP2 [1] stood at 0.31 nM.

In the case of `CC[C@H](C)[C@@H](C(=O)N1CCC[C@H]1CC(N)=O)N(C)C(=O)[C@H](CC(C)C)NC(=O)[C@H](CCN)NC(=O)CC[C@@H](NS(=O)(=O)c1ccc(NC(=O)c2ccc(OC)cc2)cc1)C(=O)O` [Compound 695] ({Phenylsulfonyl(4-anisamido)-d(γGlu)}-[Dab]L[NMeI][β3hP]-NH2; N-terminus assumed), the half-inhibitory concentration (IC50) on MMP2 [1] amounted to 0.53 nM.

With `CC[C@H](C)[C@@H](C(=O)N1CCC[C@H]1C(N)=O)N(C)C(=O)[C@H](CC(C)C)NC(=O)[C@H](C)NC(=O)[C@H](CC(=O)O)NC(=O)[C@H](CCC(N)=O)NC(=O)CCCNC(=O)c1ccc(Oc2ccccc2)cc1` [Compound 128] ({Benzoyl(4-OPh)-GABA}-QDAL[NMeI]P-NH2; N-terminus assumed), the IC50 at MMP2 [1] stood at 0.15 nM.

Consider `CC[C@H](C)[C@@H](C(=O)N1CCC[C@H]1CC(N)=O)N(C)C(=O)[C@H](CC(C)C)NC(=O)[C@H](CCN)NC(=O)[C@H](CC(=O)O)NC(=O)[C@H](CCCN)NC(=O)CCCNC(=O)c1ccc(Oc2ccccc2)cc1` [Compound 148] ({Benzoyl(4-OPh)-GABA}-[Orn]D[Dab]L[NMeI][β3hP]-NH2; N-terminus assumed), for which, at MMP2 [1], the concentration for half-maximal inhibition (IC50) turned out to be 0.48 nM.
